≈ marks a conversion by molar mass, not a printed value.
What was measured:
[1] = Solubility at pH 6.5 after 24 hrs by chemiluminescence assay; type: physicochemical; conditions: buffer
physchem = conditions: buffer, pH 6.5

| Compound | solubility at 24 h [1] | solubility thermodynamic at 4 h (physchem) |
| --- | --- | --- |
| CCNC(=O)c1cc(S(N)(=O)=O)cnc1Sc1ccccc1 | 118 µM (≈ 39.8 µg/mL) |  |
| COCCCNC(=O)c1cc(S(N)(=O)=O)cnc1Sc1ccc(F)c(F)c1 | 40.9 µM (≈ 17.1 µg/mL) |  |
| NS(=O)(=O)c1cnc(Sc2ccccc2)c(C(=O)NCCc2ccccc2)c1 | < 22.2 µM |  |
| COc1ccc(CNC(=O)c2cc(S(N)(=O)=O)cnc2Sc2ccc(F)c(F)c2)cc1 | < 19.9 µM |  |
| COCCCNC(=O)c1cc(S(N)(=O)=O)cnc1Sc1cccc(F)c1 | 89.6 µM (≈ 35.8 µg/mL) |  |
| NS(=O)(=O)c1ccc(Sc2c(F)c(F)cc(F)c2F)c(C(=O)NCCc2ccccn2)c1 | 211 µM (≈ 102 µg/mL) |  |
| CCNCc1cc(S(N)(=O)=O)cnc1Sc1ccc(F)c(F)c1 | 449 µM (≈ 161 µg/mL) |  |
| COCCCNCc1cc(S(N)(=O)=O)cnc1Sc1ccc(F)c(F)c1 | 497 µM (≈ 201 µg/mL) |  |
| CCNC(=O)c1cc(S(N)(=O)=O)cc(F)c1SCC(C)C | 553 µM (≈ 185 µg/mL) | 395 µM (≈ 132 µg/mL) |
| NS(=O)(=O)c1ccc(Sc2c(F)c(F)cc(F)c2F)nc1 | 558 µM (≈ 189 µg/mL) | 231 µM (≈ 78.1 µg/mL) |
| NS(=O)(=O)c1ccc(Sc2ccccc2)c(C(=O)NCc2ccccn2)c1 | > 275 µM |  |
| COCCNC(=O)c1cc(S(N)(=O)=O)ccc1SCCc1ccccc1 | > 304 µM |  |
| CC(C)CNC(=O)c1cc(S(N)(=O)=O)ccc1SC(C)C | 689 µM (≈ 228 µg/mL) |  |
| CCNC(=O)c1cc(S(N)(=O)=O)ccc1SC1CCCC1 | 628 µM (≈ 206 µg/mL) |  |
| CCNC(=O)c1cc(S(N)(=O)=O)ccc1Sc1ccccc1 | 205 µM (≈ 69 µg/mL) |  |
| NS(=O)(=O)c1ccc(Oc2ccccc2)c(C(=O)NCc2ccccc2)c1 | 28.5 µM (≈ 10.9 µg/mL) |  |

| Compound | solubility at 24 h [1] | solubility thermodynamic at 4 h (physchem) |
| --- | --- | --- |
| NS(=O)(=O)c1ccc(SCc2ccccc2)c(C(=O)NCc2ccccc2)c1 | < 24.2 µM |  |
| NS(=O)(=O)c1ccc(Sc2ccccc2CO)c(C(=O)NCc2ccccn2)c1 | > 258 µM |  |
| NS(=O)(=O)c1ccc(Sc2ccccn2)c(C(=O)NCc2ccccn2)c1 | > 253 µM |  |
| CCNC(=O)c1cc(S(N)(=O)=O)cnc1Sc1cccc(F)c1 | 43.2 µM (≈ 15.4 µg/mL) |  |
| NS(=O)(=O)c1ccc(Sc2ccccc2)c(C(=O)NCc2ccccc2)c1 | < 25.1 µM |  |
| NS(=O)(=O)c1ccc(S(=O)(=O)c2ccccc2)c(C(=O)NCc2ccccc2)c1 | 55.9 µM (≈ 24.1 µg/mL) |  |
| NS(=O)(=O)c1cnc(Sc2ccc(F)c(F)c2)c(CO)c1 | > 353 µM |  |
| CN(C)CCNC(=O)c1cc(S(N)(=O)=O)cnc1Sc1ccccc1 | > 265 µM |  |
| COCCNC(=O)c1cc(S(N)(=O)=O)cnc1Sc1ccccc1 | 35.6 µM (≈ 13.1 µg/mL) |  |
| NS(=O)(=O)c1cnc(Sc2c(F)c(F)cc(F)c2F)c(C(=O)NCc2ccccn2)c1 | < 21.2 µM |  |
| CCNC(=O)c1cc(S(N)(=O)=O)cc(F)c1SC(C)C | 498 µM (≈ 160 µg/mL) |  |
| COCCCNC(=O)c1cc(S(N)(=O)=O)cnc1Sc1ccccc1 | > 287 µM |  |
| CCCNC(=O)c1cc(S(N)(=O)=O)cnc1Sc1ccccc1 | 156 µM (≈ 54.8 µg/mL) |  |
| COCCCNC(=O)c1cc(S(N)(=O)=O)cnc1Sc1c(F)c(F)cc(F)c1F | 214 µM (≈ 97 µg/mL) | 124 µM (≈ 56.2 µg/mL) |
| NCCCCNC(=O)c1cc(S(N)(=O)=O)cnc1Sc1c(F)c(F)cc(F)c1F | > 265 µM | 3090 µM (≈ 1400 µg/mL) |
| COc1ccc(CCCNC(=O)c2cc(S(N)(=O)=O)cnc2Sc2c(F)c(F)cc(F)c2F)cc1 | < 19 µM |  |

Reference: ChEMBL document CHEMBL1157929, “Thioether benzenesulfonamide inhibitors of carbonic anhydrases II and IV: structure-based drug design, synthesis, and biological evaluation” (Bioorg Med Chem, 2010)
